This passage reports IC50 and GI50 results from patent US20220306659A1, “COMPOUND INHIBITING AND INDUCING DEGRADATION OF EGFR AND ALK” (BEIJING TIDE PHARMACEUTICAL CO., LTD., priority 2019, published 2022).

The target of one test is EGFR^L858R/T790M/C797S (Homo sapiens, UniProt P00533, C797S/L858R/T790M). Nature of the test: EGFR inhibitory activity assay (TK-substrate-biotin/ATP, 665/615 ratio). The test is classed as biochemical. The note with it: kinase inhibition. The protocol: EGFR Inhibitory Activity Assay
(1) A compound stock solution was prepared and diluted 3× to obtain a compound dilution; 10 nL of the compound dilution was transferred to a 384-well plate (784075, Greiner) by Echo 550;
(2) The plate was sealed, and centrifuged at 1,000 g for 1 min;
(4) 5 μl of the 2×EGFR protein working solution was added to the 384-well plate from step (2), centrifuged at 1,000 g for 30 s, and allowed to stand at room temperature (mixed thoroughly) for 10 min;
(6) 5 µL of the TK-substrate-biotin and ATP (the mixture prepared in step (5)) was added to the 384-well plate from step (4) to initiate the reaction;
(7) The mixture was centrifuged at 1,000 g for 30 s; the plate was sealed, and allowed to stand (and reacted) at room temperature for 40 min;
(8) 4×Sa-XL 665 and TK-antibody-Cryptate were prepared with detection buffer;
(9) 5 µL of the Sa-XL 665 and 5 µL of the TK-antibody-Cryptate were added successively to the 384-well plate from step (7);
(10) The mixture was centrifuged at 1,000 g for 30 s, and allowed to stand (reacted) at room temperature for 1 h;
(11) The fluorescence values were read at 615 nm and 665 nm by enzyme labeling instrument (PerkinElmer, 74785).
The ratio (665/615) of each well was calculated.
Formula of inhibition rate (%): […]
Ratiocmpd: Ratio (665/615) value of assay compound.
Ratiopositive: Average ratio (665/615) value of positive control.
Ratiovehicle: Average ratio (665/615) value of negative control.
(§1) The nonlinear regression curve (dose response-variable slope) between the value of inhibition rate (%) and the logarithm of compound concentration was fitted with graphpad prism 8.0, the effect dose curve of compound was drawn, and the IC50 value was calculated.

For test [1], the target named is Ba/F3(EGFR^L858R/T790M/C797S) cells (Homo sapiens, UniProt P00533, T790M/C797S/L858R, cells depend on it). Nature of the test: Assay of activity on Ba/F3 cells (CTG, 72 h). The test is classed as cell-based. The note with it: read-out: IC50 (nM) Ba/F3 (EGFR^L858R/T790M/C797S). The protocol:
(§2) (2) A compound stock solution was prepared, and then diluted 3× to obtain a compound dilution. 30 nL of the compound dilution was added to a 384-well plate by Echo (Labcyte, Echo550). The cells were incubated in an incubator at 37° C. and 5% CO2 for 72 h.
(§3) The percent inhibition rate (% inhibition) was calculated by the following formula
(§4) LUMcmpd: Luminescence value of assay compound.
(§5) LUMpositive: Average LUM value of positive drug at a concentration of 10 μM.
(§6) LUMvehicle. Average LUM value of negative control group without drug treatment.
as §1
(§7) Y=Bottom+(Top−Bottom)/(1+1^((LogIC50−X)*HillSlope))
(§8) X-axis: logarithm of compound concentration; Y axis: inhibition rate ([…]).

The target in test [2] is Ba/F3(EGFR^Del19/T790M/C797S) cells (Homo sapiens, UniProt P00533, DEL746-750/T790M/C797S, cells depend on it). Nature of the test: Assay of activity on Ba/F3 cells (CTG, 72 h). The note with it: read-out: IC50 (nM) Ba/F3 (EGFR^Del19/T790M/C797S). The test is classed as cell-based. The protocol:
as §2, §3, §4, §5, §6, §1, §7, §8

In the next test the target is T1, Ba/F3(EML4-ALK) cells (Homo sapiens, UniProt Q9UM73).
T1 construct: fused on or other part: Q9HC35 (Echinoderm microtubule-associated protein-like 4)
Nature of the test: Assay of activity on Ba/F3(EML4-ALK) cells (CTG, 72 h). The test is classed as cell-based. The note with it: read-out: IC50 (nM) Ba/F3(EML4-ALK). The protocol:
Assay of activity on Ba/F3(EML4-ALK) cells
(1) Ba/F3(EML4-ALK) cells were cultured according to the requirements of ATCC, incubated in an incubator at 37° C. and 5% CO2, and analyzed by index; cells with viability of >90% can be used in the assay, and cells were seeded in a 384-well plate (PerkinElmer, 6007680) with 700 cells/well, 30 μl/well.
(2) A compound stock solution was prepared, and diluted 3× to obtain a compound dilution; 30 nL of the serial dilution was added to a 384-well plate (784075, Greiner) by Echo 550, and cells were incubated in an incubator at 37° C. and 5% CO2 for 72 h.
(3) 30 μL of CTG was added to each well, and the 384-well plate was shaken on a Plate shaker (QILINBEIER, QB-9002); the 384-well plate was incubated in the dark at 37° C. and 5% CO2 for 30 min, and the chemiluminescence value was read by Envision (PerkinElmer, EnVision 2104).
The percent inhibition rate (% inhibition) was calculated by the formula below
as §4, §5
LUM^vehicle: Average LUM value of negative control group without drug treatment.
as §1
Y=Bottom+(Top−Bottom)/(1+10^((LogIC50−X)*HillSlope))
X-axis: logarithm of compound concentration; Y axis: inhibition rate (% inhibition).

SMILES strings stand for the structures.

Ba/F3(EGFR^L858R/T790M/C797S) cells, sequence (P00533 whole entry T790M/C797S/L858R): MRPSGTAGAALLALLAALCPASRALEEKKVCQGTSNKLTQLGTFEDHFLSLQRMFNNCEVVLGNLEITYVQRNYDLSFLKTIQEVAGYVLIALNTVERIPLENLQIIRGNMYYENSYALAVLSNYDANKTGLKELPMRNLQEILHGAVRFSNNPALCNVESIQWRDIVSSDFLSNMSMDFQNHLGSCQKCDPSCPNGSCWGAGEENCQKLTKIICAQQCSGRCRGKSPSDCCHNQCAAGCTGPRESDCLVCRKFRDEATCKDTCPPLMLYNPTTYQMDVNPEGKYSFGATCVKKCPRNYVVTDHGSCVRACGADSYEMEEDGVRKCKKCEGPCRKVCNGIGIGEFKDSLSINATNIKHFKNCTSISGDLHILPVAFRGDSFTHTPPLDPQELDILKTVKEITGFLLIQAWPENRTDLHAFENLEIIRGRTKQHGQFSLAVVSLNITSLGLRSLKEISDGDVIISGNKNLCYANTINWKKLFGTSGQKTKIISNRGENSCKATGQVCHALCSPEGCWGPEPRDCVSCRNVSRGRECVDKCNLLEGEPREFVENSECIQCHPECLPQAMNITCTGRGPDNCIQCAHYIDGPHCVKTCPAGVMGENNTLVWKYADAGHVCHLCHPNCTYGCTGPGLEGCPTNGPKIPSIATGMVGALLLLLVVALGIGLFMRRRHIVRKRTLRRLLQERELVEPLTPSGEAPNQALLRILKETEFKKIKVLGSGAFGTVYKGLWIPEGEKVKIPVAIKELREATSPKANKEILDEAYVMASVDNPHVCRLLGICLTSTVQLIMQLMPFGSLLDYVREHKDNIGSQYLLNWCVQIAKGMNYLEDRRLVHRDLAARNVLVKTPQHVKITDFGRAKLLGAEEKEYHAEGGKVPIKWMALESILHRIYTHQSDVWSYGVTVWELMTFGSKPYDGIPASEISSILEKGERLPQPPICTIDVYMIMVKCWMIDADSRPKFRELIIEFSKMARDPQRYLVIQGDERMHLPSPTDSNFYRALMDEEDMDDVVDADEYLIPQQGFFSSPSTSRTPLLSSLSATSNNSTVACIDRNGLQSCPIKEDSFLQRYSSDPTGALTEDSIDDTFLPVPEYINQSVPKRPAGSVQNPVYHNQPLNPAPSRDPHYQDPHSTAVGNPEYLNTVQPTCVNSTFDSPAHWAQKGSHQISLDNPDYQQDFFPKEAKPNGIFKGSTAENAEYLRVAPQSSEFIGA
EGFR^L858R/T790M/C797S, sequence (P00533 25-1210 T790M/C797S/L858R): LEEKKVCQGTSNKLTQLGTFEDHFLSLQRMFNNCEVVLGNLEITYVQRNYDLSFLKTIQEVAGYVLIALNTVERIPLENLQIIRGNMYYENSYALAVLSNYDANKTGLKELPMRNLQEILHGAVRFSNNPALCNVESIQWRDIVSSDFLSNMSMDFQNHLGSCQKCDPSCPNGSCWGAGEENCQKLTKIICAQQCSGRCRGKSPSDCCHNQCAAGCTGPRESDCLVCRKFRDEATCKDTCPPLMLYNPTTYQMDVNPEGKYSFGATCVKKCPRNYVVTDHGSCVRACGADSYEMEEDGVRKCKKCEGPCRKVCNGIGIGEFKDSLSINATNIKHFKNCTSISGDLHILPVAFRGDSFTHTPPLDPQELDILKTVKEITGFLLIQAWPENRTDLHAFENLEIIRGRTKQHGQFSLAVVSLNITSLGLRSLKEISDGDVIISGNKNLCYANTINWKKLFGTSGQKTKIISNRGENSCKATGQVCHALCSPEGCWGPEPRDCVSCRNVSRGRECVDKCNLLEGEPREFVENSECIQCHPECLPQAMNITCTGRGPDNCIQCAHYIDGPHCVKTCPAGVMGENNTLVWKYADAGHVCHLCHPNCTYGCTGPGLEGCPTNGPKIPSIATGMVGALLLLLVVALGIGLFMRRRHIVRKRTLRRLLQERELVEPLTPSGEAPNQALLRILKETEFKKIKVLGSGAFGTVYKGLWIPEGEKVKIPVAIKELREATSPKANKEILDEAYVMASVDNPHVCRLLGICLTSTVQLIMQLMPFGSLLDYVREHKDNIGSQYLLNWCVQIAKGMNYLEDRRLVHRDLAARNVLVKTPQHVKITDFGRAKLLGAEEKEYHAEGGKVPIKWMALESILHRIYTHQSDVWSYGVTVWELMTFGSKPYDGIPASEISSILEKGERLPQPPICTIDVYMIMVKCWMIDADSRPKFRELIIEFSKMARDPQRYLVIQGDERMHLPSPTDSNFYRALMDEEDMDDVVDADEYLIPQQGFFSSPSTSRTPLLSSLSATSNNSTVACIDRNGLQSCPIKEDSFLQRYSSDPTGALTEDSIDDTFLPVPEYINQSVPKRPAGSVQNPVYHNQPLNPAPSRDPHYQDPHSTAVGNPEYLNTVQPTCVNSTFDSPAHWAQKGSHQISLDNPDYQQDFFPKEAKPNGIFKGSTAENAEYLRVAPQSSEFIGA
Ba/F3(EGFR^Del19/T790M/C797S) cells, sequence (P00533 with tags, fused parts or gaps DEL746-750/T790M/C797S): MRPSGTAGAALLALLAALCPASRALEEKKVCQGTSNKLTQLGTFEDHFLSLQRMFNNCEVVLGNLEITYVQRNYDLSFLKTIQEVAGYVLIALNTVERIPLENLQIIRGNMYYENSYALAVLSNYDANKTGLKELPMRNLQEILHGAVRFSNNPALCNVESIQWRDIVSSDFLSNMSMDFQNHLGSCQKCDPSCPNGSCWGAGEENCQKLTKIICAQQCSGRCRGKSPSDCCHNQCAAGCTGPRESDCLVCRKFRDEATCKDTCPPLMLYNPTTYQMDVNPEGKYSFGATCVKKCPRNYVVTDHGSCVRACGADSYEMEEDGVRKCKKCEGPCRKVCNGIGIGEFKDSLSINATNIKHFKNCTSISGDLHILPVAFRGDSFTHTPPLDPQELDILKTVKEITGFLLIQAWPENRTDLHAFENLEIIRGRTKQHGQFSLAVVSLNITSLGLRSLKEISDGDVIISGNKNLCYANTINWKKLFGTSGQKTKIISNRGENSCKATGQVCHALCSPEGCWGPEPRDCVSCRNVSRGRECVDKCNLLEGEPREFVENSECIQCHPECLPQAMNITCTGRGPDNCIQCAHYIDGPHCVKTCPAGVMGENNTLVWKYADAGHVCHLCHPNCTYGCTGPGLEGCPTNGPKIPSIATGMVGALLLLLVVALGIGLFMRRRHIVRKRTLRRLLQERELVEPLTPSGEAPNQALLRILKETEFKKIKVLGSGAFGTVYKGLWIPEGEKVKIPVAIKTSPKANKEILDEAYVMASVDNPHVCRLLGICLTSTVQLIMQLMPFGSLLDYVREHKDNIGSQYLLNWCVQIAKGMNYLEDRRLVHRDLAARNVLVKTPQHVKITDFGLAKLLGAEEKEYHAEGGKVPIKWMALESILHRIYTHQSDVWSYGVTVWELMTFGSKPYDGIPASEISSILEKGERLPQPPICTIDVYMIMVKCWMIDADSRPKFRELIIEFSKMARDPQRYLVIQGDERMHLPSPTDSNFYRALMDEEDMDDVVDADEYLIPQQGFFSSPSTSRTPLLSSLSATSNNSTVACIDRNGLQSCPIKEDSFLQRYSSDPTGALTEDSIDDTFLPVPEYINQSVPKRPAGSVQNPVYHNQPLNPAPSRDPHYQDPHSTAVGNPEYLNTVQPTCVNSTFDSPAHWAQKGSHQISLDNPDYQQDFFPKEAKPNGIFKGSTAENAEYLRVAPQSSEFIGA

The term IC50 denotes the point on the concentration scale where inhibition reaches its midpoint. `COc1cc(N2CCC(N3CCN(CC(=O)NCCNc4cccc5c4C(=O)N(C4CCC(=O)NC4=O)C5=O)CC3)CC2)ccc1Nc1ncc(Cl)c(Nc2ccccc2P(C)(C)=O)n1` (centres unmarked) [Compound A6, 2-(4-(1-(4-((5-chloro-4-((2-(dimethylphosphoryl)phenyl)amino)pyrimidin-2-yl)amino)-3-methoxyphenyl)piperidin-4-yl)piperazin-1-yl)-N-(2-((2-(2,6-dioxopiperidin-3-yl)-1,3-dioxoisoindolin-4-yl)amino)ethyl)acetamide]: the IC50 on EGFR^L858R/T790M/C797S fell in the range of 1 to 100 nM.
Consider `C=Cc1cnc(Nc2ccc(N3CCC(N4CCN(CCCCCCCCCOc5cccc6c5C(=O)N(C5CCC(=O)NC5=O)C6=O)CC4)CC3)cc2OC)nc1Nc1ccccc1P(C)(C)=O` (centres unmarked) [Compound C25, 4-((9-(4-(1-(4-((4-((2-(dimethylphosphoryl)phenyl)amino)-5-vinylpyrimidin-2-yl)amino)-3-methoxyphenyl)piperidin-4-yl)piperazin-1-yl)nonyl)oxy)-2-(2,6-dioxopiperidin-3-yl)isoindoline-1,3-dione], for which the GI50 in test [1] fell in the range of 201 to 300 nM. Besides, the IC50 on EGFR^L858R/T790M/C797S lay in the range of 101 to 200 nM.
Taken in the same sequence, the figures for `COc1cc(N2CCC(N3CCN(CC(=O)N4CCC(OCC(=O)Nc5cccc6c5CN(C5CCC(=O)NC5=O)C6=O)CC4)CC3)CC2)ccc1Nc1ncc(Cl)c(Nc2ccccc2P(C)(C)=O)n1` (centres unmarked) [Compound C78, 2-((1-(2-(4-(1-(4-((5-chloro-4-((2-(dimethylphosphoryl)phenyl)amino)pyrimidin-2-yl)amino)-3-methoxyphenyl)piperidin-4-yl)piperazin-1-yl)acetyl)piperidin-4-yl)oxy)—N-(2-(2,6-dioxopiperidin-3-yl)-1-oxoisoindolin-4-yl)acetamide] were > 300 nM and 1 to 100 nM.
Taken in the same sequence, the figures for `COc1cc(N2CCC(N3CCN(CC(=O)NC4CCN(CC(=O)Nc5cccc6c5CN(C5CCC(=O)NC5=O)C6=O)CC4)CC3)CC2)ccc1Nc1ncc(Cl)c(Nc2ccccc2P(C)(C)=O)n1` (centres unmarked) [Compound C88, 2-(4-(1-(4-((5-chloro-4-((2-(dimethylphosphoryl)phenyl)amino)pyrimidin-2-yl)amino)-3-methoxyphenyl)piperidin-4-yl)piperazin-1-yl)-N-(1-(2-((2-(2,6-dioxopiperidin-3-yl)-1-oxoisoindolin-4-yl)amino)-2-oxoethyl)piperidin-4-yl)acetamide] were > 300 nM and 1 to 100 nM.
Taken in the same sequence, the figures for `COc1cc(N2CCC(N3CCN(C(=O)CN4CCN(C(=O)COc5cccc6c5C(=O)N(C5CCC(=O)NC5=O)C6=O)CC4)CC3)CC2)ccc1Nc1ncc(Cl)c(Nc2ccccc2P(C)(C)=O)n1` (centres unmarked) [Compound C99, 4-(2-(4-(2-(4-(1-(4-((5-chloro-4-((2-(dimethylphosphoryl)phenyl)amino)pyrimidin-2-yl)amino)-3-methoxyphenyl)piperidin-4-yl)piperazin-1-yl)-2-oxoethyl)piperazin-1-yl)-2-oxoethoxy)-2-(2,6-dioxopiperidin-3-yl)isoindoline-1,3-dione] were > 300 nM and 1 to 100 nM.
Consider `COc1cc(N2CCC(N3CCN(C(=O)COc4cccc5c4C(=O)N(C4CCC(=O)NC4=O)C5=O)CC3)CC2)ccc1Nc1ncc(Cl)c(Nc2ccccc2P(C)(C)=O)n1` (centres unmarked) [Compound C101, 4-(2-(4-(1-(4-((5-chloro-4-((2-(dimethylphosphoryl)phenyl)amino)pyrimidin-2-yl)amino)-3-methoxyphenyl)piperidin-4-yl)piperazin-1-yl)-2-oxoethoxy)-2-(2,6-dioxopiperidin-3-yl)isoindoline-1,3-dione], for which the GI50 in test [1] is > 300 nM. Besides, at EGFR^L858R/T790M/C797S, the half-maximal inhibitory concentration (IC50) lay within 1 to 100 nM.
For `COc1cc(N2CCC(N3CCN(C(=O)C4(C(=O)Oc5cccc6c5C(=O)N(C5CCC(=O)NC5=O)C6=O)CC4)CC3)CC2)ccc1Nc1ncc(Cl)c(Nc2ccccc2P(C)(C)=O)n1` (centres unmarked) [Compound C104, 1-(4-(1-(4-((5-chloro-4-((2-(dimethylphosphoryl)phenyl)amino)pyrimidin-2-yl)amino)-3-methoxyphenyl)piperidin-4-yl)piperazine-1-carbonyl)cyclopropane-1-carboxylate 2-(2,6-dioxopiperidin-3-yl)-1,3-dioxoisoindolin-4-yl ester] the same measures were > 300 nM and 1 to 100 nM.
Consider `COc1cc(N2CCC(N3CCN(CC(=O)N4CC(F)(F)C[C@H]4C(=O)Nc4cccc5c4CN(C4CCC(=O)NC4=O)C5=O)CC3)CC2)ccc1Nc1ncc(Cl)c(Nc2ccccc2P(C)(C)=O)n1` (stereo partly drawn) [Compound C110, (2S)-1-(2-(4-(1-(4-((5-chloro-4-((2-(dimethylphosphoryl)phenyl)amino)pyrimidin-2-yl)amino)-3-methoxyphenyl)piperidin-4-yl)piperazin-1-yl)acetyl)-N-(2-(2,6-dioxopiperidin-3-yl)-1-oxoisoindolin-4-yl)-4,4-difluoropyrrolidine-2-carboxamide], for which the GI50 in test [1] is > 300 nM. At EGFR^L858R/T790M/C797S, the half-inhibitory concentration (IC50) is 1 to 100 nM.
Take `COc1cc(N2CCC(N3CCN(CC(=O)N[C@H](COc4cccc5c4C(=O)N(C4CCC(=O)NC4=O)C5=O)C(C)(C)C)CC3)CC2)ccc1Nc1ncc(Cl)c(Nc2ccccc2P(C)(C)=O)n1` (stereo partly drawn) [Compound C112, 2-(4-(1-(4-((5-chloro-4-((2-(dimethylphosphoryl)phenyl)amino)pyrimidin-2-yl)amino)-3-methoxyphenyl)piperidin-4-yl)piperazin-1-yl)-N-((2S)-1-((2-(2,6-dioxopiperidin-3-yl)-1,3-dioxoisoindolin-4-yl)oxy)-3,3-dimethylbutan-2-yl)acetamide]: on EGFR^L858R/T790M/C797S, the IC50 is 1 to 100 nM.
On to `COc1cc(N2CCC(N3CCN(CCCCCC#Cc4cccc5c4C(=O)N(C4CCC(=O)NC4=O)C5=O)CC3)CC2)ccc1Nc1ncc(Cl)c(Nc2ccccc2P(C)(C)=O)n1` (centres unmarked) [Compound C148, 4-(7-(4-(1-(4-((5-chloro-4-((2-(dimethylphosphoryl)phenyl)amino)pyrimidin-2-yl)amino)-3-methoxyphenyl)piperidin-4-yl)piperazin-1-yl)hept-1-yn-1-yl)-2-(2,6-dioxopiperidin-3-yl)isoindoline-1,3-dione], for which the GI50 in test [1] is > 300 nM. Besides, the IC50 at EGFR^L858R/T790M/C797S fell in the range of 1 to 100 nM.
Consider `COc1cc(N2CCC(N3CCN(CCCCCC#Cc4ccc5c(c4)CN(C4CCC(=O)NC4=O)C5=O)CC3)CC2)c(C)cc1Nc1ncc(Br)c(Nc2ccc3nccnc3c2P(C)(C)=O)n1` (centres unmarked) [Compound C163, 3-(5-(7-(4-(1-(4-((5-bromo-4-((5-(dimethylphosphoryl)quinoxalin-6-yl)amino)pyrimidin-2-yl)amino)-5-methoxy-2-methylphenyl)piperidin-4-yl)piperazin-1-yl)hept-1-yn-1-yl)-1-oxoisoindolin-2-yl)piperidine-2,6-dione], for which the GI50 (in test [2]; at Ba/F3(EML4-ALK) cells) was 1 to 100 nM each time.
